Patent US20110086096A1, “MODIFIED RELEASE 1- [ (3-HYDROXY-ADAMANT-1-YLAMINO)-ACETYL] -PYRROLIDINE-2 (S) -CARBONITRILE FORMULATION” (priority 2005, published 2011)

What was measured:
[1] = Water solubility of drug substance; format: physicochemical; conditions: heading: water solubility
Text: A once a day MR dosage form is likely to require a significant level of polymer load for retarding drug diffusion. During the development, the applicant has selected monolithic formulation with low risk for dose dumping, eliminating coating technologies in favor of a matrix formulation. After intensive studies on compatibility, ability to retard diffusion pharmacokinetic and pharmacodynamic studies, and regulatory acceptance requirements the applicant narrowed the polymer choice to hydrophilic polymers, especially hydroxpropyl methyl cellulose (HPMC).

[2] = Drug substance and tablet retest date; format: physicochemical; conditions: drug substance, storage at 25° C.
Protocol: The vildagliptin drug substance (DS) is sensitive to moisture. Very tight packaging is necessary. Current retest date is 30 months with storage at 25° C.
For the CSF 100 mg, 150 mg and 200 mg strengths, the stability data are available up to 12 months at 25° C./60% RH and 30° 60% RH. […] The composition of vildagliptin 150 mg modified release tablets is bracketed by 100 mg and 200 mg strengths. Therefore, the stability of 150 mg tablets is expected to be same as 100 mg and 200 mg strengths. Thus a re-test period similar to that of 100 and 200 mg strengths is applied for 150 mg tablets.

solubility [1]: > 125 mg/mL
retest date [2]: 30 months
SMILES: N#C[C@@H]1CCCN1C(=O)CNC12CC3CC(CC(O)(C3)C1)C2 [vildagliptin, 1-[(3-Hydroxy-adamant-1-ylamino)-acetyl]-pyrrolidine-2(S)-carbonitrile]
